Measurements as given in PubChem BioAssay (NCI).
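Values below derive from 48-hour exposures of cells grown in 96-well plates, with endpoints linearly interpolated between the two concentrations bracketing the appropriate inhibition level. TGI denotes the concentration required for complete inhibition of growth.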

What was measured:
Assay in all cases: inhibition of tumour cell growth, NCI panel, 48 h
SF-295 CNS = system: SF-295 CNS
UO-31 renal = system: UO-31 renal
UACC-257 melanoma = system: UACC-257 melanoma
HCT-15 colon = system: HCT-15 colon
SR leukemia = system: SR leukemia
PC-3 prostate = system: PC-3 prostate
SK-MEL-5 melanoma = system: SK-MEL-5 melanoma
SNB-75 CNS = system: SNB-75 CNS
MOLT-4 leukemia = system: MOLT-4 leukemia
MCF7 breast = system: MCF7 breast
DU-145 prostate = system: DU-145 prostate
MDA-N = system: MDA-N
SK-MEL-28 melanoma = system: SK-MEL-28 melanoma
COLO 205 colon = system: COLO 205 colon
LOX IMVI melanoma = system: LOX IMVI melanoma
HS 578T breast = system: HS 578T breast
U251 CNS = system: U251 CNS
HT29 colon = system: HT29 colon
OVCAR-5 ovarian = system: OVCAR-5 ovarian

Compound	TGI (SF-295 CNS)	TGI (UO-31 renal)	TGI (UACC-257 melanoma)	TGI (HCT-15 colon)	TGI (SR leukemia)	TGI (PC-3 prostate)	TGI (SK-MEL-5 melanoma)	TGI (SNB-75 CNS)	TGI (MOLT-4 leukemia)	TGI (MCF7 breast)	TGI (DU-145 prostate)	TGI (MDA-N)	TGI (SK-MEL-28 melanoma)	TGI (COLO 205 colon)	TGI (LOX IMVI melanoma)	TGI (HS 578T breast)	TGI (U251 CNS)	TGI (HT29 colon)	TGI (OVCAR-5 ovarian)
CC(C)(C)CC(C)(C)N=C(N)NO	> 100 µM	> 80.2 µM	> 100 µM	> 100 µM	> 100 µM	> 100 µM	> 100 µM	> 100 µM	> 100 µM	> 100 µM	> 100 µM	> 100 µM	> 100 µM	> 100 µM	> 100 µM	> 100 µM	> 100 µM	> 100 µM	> 100 µM
S=C(N/N=C(/c1ccccc1)c1ccccn1)Nc1ccc(Cl)cc1	11.3 µM	9.37 µM	2.43 µM	11.2 µM	6.75 µM	10.3 µM	8.1 µM	8.84 µM	> 13.8 µM	7.16 µM	11.6 µM	9.57 µM	11.8 µM	18.2 µM	7.49 µM	> 78.2 µM	12.4 µM	> 44.3 µM	6.2 µM
C/C=C/C(C#N)(Cc1ccccc1)OP1(=O)OC(c2ccccc2)C(C)N1C (centres undefined)	> 100 µM	> 100 µM	> 100 µM	> 100 µM	> 100 µM	> 100 µM	> 100 µM	> 100 µM	78.4 µM	> 100 µM	> 100 µM	> 100 µM	> 100 µM	> 100 µM	> 100 µM	> 100 µM	> 100 µM	> 100 µM	> 100 µM
COC(=O)[C@]12CCC(C)(C)C[C@H]1C1=CC[C@@H]3[C@@]4(C)CC[C@H](OC5OC(CO)C(O)C(O)C5OC5OC(CO)C(O)C(O)C5O)C(C)(C)[C@@H]4CC[C@@]3(C)[C@]1(C)CC2 (some centres undefined)	27.2 µM	10.9 µM	20.3 µM	25 µM	26.8 µM	15.3 µM	29.3 µM	26.4 µM	40.8 µM	24.4 µM	24.5 µM	18.4 µM	12.3 µM	10.4 µM	20.2 µM	56.8 µM	26.3 µM	22.1 µM	30.5 µM
O=C(NCCNCCNCCNC(=O)c1cc(-c2ccccc2)nc2ccccc12)c1cc(-c2ccccc2)nc2ccccc12	3.09 µM	18 µM	3.17 µM	18.9 µM	5.01 µM	14.1 µM	2.88 µM	3.44 µM	4.22 µM	3.79 µM	11.8 µM	2.97 µM	3.08 µM	4 µM	3.03 µM	4.96 µM	3.3 µM	3.14 µM	4.94 µM
COc1ccccc1N1C(=O)CS(=O)(=O)C1c1cccc(Oc2ccccc2)c1 (centres undefined)	38.2 µM	35.1 µM	25.6 µM	36.2 µM	28.2 µM	27.2 µM	28.9 µM	48.2 µM	38.8 µM	20.4 µM	71.2 µM	16.5 µM	36.7 µM	34.4 µM	36.1 µM	48.2 µM	29.7 µM	44.1 µM	59 µM
CO[C@@H]1C=C[C@@]23c4cc5c(cc4C(O)N(CC2O)C3C1)OCO5 (some centres undefined)	64.1 µM	36.8 µM	5.9 µM	39.3 µM	> 100 µM	17.5 µM	6.01 µM	6.92 µM	> 100 µM	8.64 µM	50.7 µM	26.1 µM	> 100 µM	14.2 µM	48.5 µM	> 100 µM	16.6 µM	26.2 µM	79.3 µM
CCOC(=O)CCC(NC(=O)c1ccc(Nc2nc3ccccc3n3cccc23)cc1)C(=O)OCC (centres undefined)	71.1 µM	> 100 µM	72.5 µM	> 100 µM	> 100 µM	34.5 µM	> 100 µM	53.6 µM	82.8 µM	> 100 µM	97.7 µM	> 100 µM	> 100 µM	> 100 µM	> 100 µM	> 100 µM	62.3 µM	> 100 µM	> 100 µM
Nc1ccc2cc3[nH]c4cc(N)ccc4c3nc2c1	1.37 µM	0.659 µM	0.761 µM	1.47 µM	0.66 µM	1.49 µM	0.923 µM	1.33 µM	6.76 µM	1.7 µM	2.4 µM	1.13 µM	0.317 µM	1.27 µM	0.911 µM	2.57 µM	2.37 µM	1.48 µM	1.83 µM
COc1ccc2oc(=O)c3c(c2c1C)OC(C)(C)C=C3	> 100 µM	> 100 µM	> 100 µM	> 100 µM	> 100 µM	> 100 µM	> 100 µM	> 100 µM	> 100 µM	> 100 µM	> 100 µM	> 100 µM	> 100 µM	> 100 µM	> 100 µM	> 100 µM	> 100 µM	> 100 µM	> 100 µM
CC(C)[Si](OC1=C(C(=O)N(C)c2ccccc2Cl)CCCC1)(C(C)C)C(C)C	20.9 µM	27.6 µM	24.1 µM	31.2 µM	24.1 µM	24.4 µM	27.5 µM	27.5 µM	43 µM	27.2 µM	22.5 µM	34.3 µM	37.4 µM	29.3 µM	30 µM	30.7 µM	25.8 µM	32.3 µM	26.3 µM
COc1ccc2oc(=O)c(CC=C(C)C)c(O)c2c1C	> 100 µM	> 100 µM	> 100 µM	> 100 µM	> 100 µM	> 100 µM	> 100 µM	> 100 µM	> 100 µM	> 100 µM	> 100 µM	> 100 µM	> 100 µM	> 100 µM	> 100 µM	> 100 µM	> 100 µM	> 100 µM	> 100 µM
CN(C)c1nc(=NCc2cccs2)ss1	> 10 µM	> 10 µM	> 10 µM	> 10 µM	> 4.9 µM	> 10 µM	> 10 µM	> 10 µM	> 6.29 µM	> 10 µM	> 10 µM	> 10 µM	> 10 µM	> 10 µM	> 10 µM	> 10 µM	> 10 µM	> 10 µM	> 10 µM
O=C(Nc1sccc1S(=O)(=O)c1ccc(Cl)cc1)C(F)(F)F	> 100 µM	> 100 µM	> 100 µM	> 100 µM	58.3 µM	> 100 µM	38.8 µM	71.6 µM	41.1 µM	> 100 µM	> 100 µM	77.3 µM	> 100 µM	31.8 µM	> 100 µM	72.1 µM	> 100 µM	> 100 µM	> 100 µM
CCCNC(C#N)c1ccc(OCCCCCCCCCCOc2ccc(C(C#N)NCCC)cc2)cc1 (centres undefined)	> 100 µM	> 100 µM	> 100 µM	> 100 µM	61.3 µM	> 100 µM	> 100 µM	> 100 µM	39.8 µM	> 100 µM	> 100 µM	> 100 µM	> 100 µM	> 100 µM	34.6 µM	> 100 µM	42.7 µM	> 100 µM	> 100 µM
CN(C)CCCNc1ccnc2cc([N+](=O)[O-])ccc12	54.9 µM	44.8 µM	27.7 µM	26.7 µM	> 100 µM	42.4 µM	24.1 µM	48.9 µM	> 100 µM	16.7 µM	72.2 µM	25.7 µM	97.5 µM	7.9 µM	24.6 µM	40.4 µM	57.7 µM	6.99 µM	42.4 µM
